In PMC6515519, “Structure–Activity Relationships of the Tetrapeptide Ac-His-Arg-(pI)DPhe-Tic-NH2 at the Mouse Melanocortin Receptors: Modification at the (pI)DPhe Position Leads to mMC3R Versus mMC4R Selective Ligands” (Molecules, 2019):
Entries after “also recorded” stand apart in the source; their conditions may differ. Like-named read-outs stand apart in the source and are kept apart here. Values belong to the compound of their own block, whether it stands above or below them. Non-standard residues stand in square brackets, D forms with d. Residues, ends and D or L forms follow the SMILES beside them. dPhe(4-CN) = N#Cc1ccc(C[C@@H](N)C(=O)O)cc1; dPhe(4-Me) = Cc1ccc(C[C@@H](N)C(=O)O)cc1; Tic = O=C(O)[C@@H]1Cc2ccccc2CN1

Tests used:
mMC5R = target: T1, mMC5R (Mus musculus, UniProt P41149); assay: β-galactosidase cAMP reporter assay, agonist pharmacology in HEK293 cells stably expressing mMC5R; assay type: cell-based; conditions: for EC50: β-galactosidase cAMP, HEK293, mean ± SEM, apparent EC50 for partial agonists
T1 construct: expressed in transfected cells
T1 sequence (P41149 whole entry): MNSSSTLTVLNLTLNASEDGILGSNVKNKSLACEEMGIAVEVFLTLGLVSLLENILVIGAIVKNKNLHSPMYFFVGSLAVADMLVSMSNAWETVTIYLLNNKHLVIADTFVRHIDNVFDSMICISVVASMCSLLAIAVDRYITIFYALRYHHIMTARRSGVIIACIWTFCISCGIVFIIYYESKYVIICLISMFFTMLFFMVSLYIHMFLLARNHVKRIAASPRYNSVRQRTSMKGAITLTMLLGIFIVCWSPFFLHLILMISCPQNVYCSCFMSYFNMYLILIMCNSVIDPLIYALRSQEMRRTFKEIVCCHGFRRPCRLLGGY
Procedure: (§1) Peptides were synthesized manually with microwave irradiation using standard Fmoc synthesis techniques and purified using semi-preparative reverse-phase high-pressure liquid-chromatography (RP-HPLC). […] Agonist pharmacology was measured at the mMC3R, mMC4R, and mMC5R using a colorimetric β-galactosidase assay that measures cAMP production. Agonist pharmacology was assessed at the mMC1R using the Amplified Luminescent Proximity Homogenous Assay Screen (AlphaScreen, PerkinElmer), as previously described. The MC2R is only stimulated by ACTH, and was not examined in this study. For both assays, HEK293 cells stably expressing the mMCRs were used.
(§2) The peptide ligands were assessed for pharmacological activity at the mMC3R, mMC4R, and mMC5R using a β-galactosidase assay. Briefly, HEK293 cells stably expressing the MC3R, MC4R, or MC5R were plated into a 10 cm dish and grown to 40% confluency. The HEK293 cells were transfected with 4 µg of CRE/β-galactosidase using the calcium-phosphate method, as previously described. Cells (5000 to 15,000) were plated on collagen-treated Nunclon Delta Surface 96-well plates (Thermo Fisher Scientific) and incubated at 37 °C with 5% CO2. […] Plates were stored at −80 °C for up to two weeks.
(§3) Thawed plates were assessed for protein content and assayed for β-galactosidase activity. Relative protein concentration was determined by adding 10 µL of cell lysate to 200 µL of a 1:5 dilution of Bio Rad G250 protein dye in a 96-well plate.
(§4) The EC50 and pA2 values represent the mean of duplicate replicates performed in at least three independent experiments. The EC50 and pA2 values and their associated standard errors (SEM) were determined by fitting the data to a nonlinear least-squares analysis using the PRISM program (v4.0, GraphPad Inc., San Diego, CA, USA). The ligands were assayed as TFA salt and not corrected for peptide content.

mMC3R = target: T2, mMC3R (Mus musculus, UniProt P33033); assay: β-galactosidase cAMP reporter assay, agonist pharmacology in HEK293 cells stably expressing mMC3R; assay type: cell-based; conditions: for decreased agonist potency at the mMC3R compared to KNS2-22-4: ratio of EC50 to KNS2-22-4; for EC50: β-galactosidase cAMP, HEK293, mean ± SEM, apparent EC50 for partial agonists; for mMC3R percent maximal stimulation relative to NDP-MSH (partial agonist): relative to maximal NDP-MSH signal
T2 construct: expressed in transfected cells
T2 sequence (P33033 whole entry): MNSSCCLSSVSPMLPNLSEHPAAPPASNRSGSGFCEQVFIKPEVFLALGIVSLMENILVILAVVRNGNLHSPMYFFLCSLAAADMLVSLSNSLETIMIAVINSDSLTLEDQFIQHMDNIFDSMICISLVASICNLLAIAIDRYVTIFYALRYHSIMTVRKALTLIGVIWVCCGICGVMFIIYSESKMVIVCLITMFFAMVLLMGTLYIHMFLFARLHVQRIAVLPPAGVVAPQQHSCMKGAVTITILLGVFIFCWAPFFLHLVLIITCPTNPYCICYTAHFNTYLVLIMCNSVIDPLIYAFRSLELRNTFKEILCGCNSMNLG
Procedure: as §1, §2, §3, §4

mMC4R [1] = target: T3, mMC4R (Mus musculus, UniProt P56450); assay: β-galactosidase cAMP reporter assay, agonist pharmacology in HEK293 cells stably expressing mMC4R; assay type: cell-based; conditions: for mMC4R agonist activity: full agonist = >90% of maximal NDP-MSH signal, inactive = <20% at 100 µM
T3 construct: expressed in transfected cells
T3 sequence (P56450 whole entry): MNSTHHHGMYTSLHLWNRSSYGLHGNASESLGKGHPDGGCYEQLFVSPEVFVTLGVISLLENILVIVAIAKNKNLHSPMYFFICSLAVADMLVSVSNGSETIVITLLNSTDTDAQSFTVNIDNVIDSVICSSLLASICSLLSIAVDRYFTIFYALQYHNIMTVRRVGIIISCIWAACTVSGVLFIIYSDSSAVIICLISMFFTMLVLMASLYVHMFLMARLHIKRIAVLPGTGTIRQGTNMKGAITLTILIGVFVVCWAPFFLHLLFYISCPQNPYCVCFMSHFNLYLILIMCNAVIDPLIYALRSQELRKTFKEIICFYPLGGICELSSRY
Procedure: as §1, §2, §3, §4

mMC1R = target: T4, mMC1R (Mus musculus, UniProt Q01727); assay: AlphaScreen cAMP assay, agonist pharmacology in HEK293 cells stably expressing mMC1R; assay type: cell-based; conditions: for EC50: AlphaScreen cAMP, HEK293, mean ± SEM, at least three experiments
T4 construct: expressed in transfected cells
T4 sequence (Q01727 whole entry): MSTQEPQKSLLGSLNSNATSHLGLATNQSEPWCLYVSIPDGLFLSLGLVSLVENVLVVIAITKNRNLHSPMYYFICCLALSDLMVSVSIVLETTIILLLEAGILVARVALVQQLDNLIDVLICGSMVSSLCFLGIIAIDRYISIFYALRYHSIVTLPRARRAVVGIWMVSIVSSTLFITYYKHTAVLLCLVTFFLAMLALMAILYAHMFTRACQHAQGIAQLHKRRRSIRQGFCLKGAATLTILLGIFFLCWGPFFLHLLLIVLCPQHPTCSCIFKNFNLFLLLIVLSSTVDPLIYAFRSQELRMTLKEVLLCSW
Procedure: as §1
Peptide ligands were dissolved in DMSO at stock concentrations of 10^−2 M. To assess the pharmacological activity of the tetrapeptides at the mMC1R, HEK293 cells stably expressing the mMC1R were stimulated with the ligands using the cAMP AlphaScreen assay (PerkinElmer) according to the manufacturer’s instruction and as previously described.
Cells were dislodged with Versene (Gibco) at 37 °C, and 10,000 cells/well were plated in a 384-well plate (Optiplate) with freshly made stimulation buffer (Hank’s Balanced Salt Solution (HBSS, 1×), 0.5 mM 3-isobutyl-1-methylxanthine (IBMX), 5 mM HEPES, and 0.1% bovine serum albumin (BSA), pH = 7.4) with 0.5 μg anti-cAMP acceptor beads per well.
Plates were incubated for an additional 2 h in the dark. Post incubation, the plates were read by an EnSpire plate reader (PerkinElmer, Waltham, MA, USA).
as §4

mMC4R [2] = target: T3, mMC4R; assay: β-galactosidase cAMP reporter assay, antagonist Schild analysis with NDP-MSH as agonist; assay type: cell-based; conditions: for mMC4R antagonist activity: Schild design, agonist NDP-MSH, in the concentrations assayed
Procedure: as §1, §2, §3, §4

MC3R = conditions: previous studies; cited from earlier work
MC4R = conditions: cited from earlier work
[3] = target: mouse melanocortin-1 receptor (mouse) (UniProt Q01727)
Chain of mouse melanocortin-1 receptor (mouse) (Q01727 whole entry): as above

[4] = target: mouse melanocortin-5 receptor (mouse) (UniProt P41149)
Chain of mouse melanocortin-5 receptor (mouse) (P41149 whole entry): as the sequence (P41149 whole entry) above

[5] = target: mouse melanocortin-4 receptor (mouse) (UniProt P56450)
Chain of mouse melanocortin-4 receptor (mouse) (P56450 whole entry): as the sequence (P56450 whole entry) above

[6] = target: mouse melanocortin-3 receptor (mouse) (UniProt P33033)
Chain of mouse melanocortin-3 receptor (mouse) (P33033 whole entry): as the sequence (P33033 whole entry) above

[7] = relative to maximal NDP-MSH signal

EC50 (mMC5R): 17 ± 4 nM | decreased agonist potency at the mMC3R compared to KNS2-22-4 (mMC3R): 8 fold | EC50 (mMC3R): 110 ± 20 nM | EC50 (mMC4R [1]): 700 nM | mMC4R percent maximal stimulation relative to NDP-MSH (partial agonist) (mMC4R [1]; [7]): 50 % NDP | EC50 (mMC1R): 1 ± 0.3 nM | potency increase at the mMC1R relative to Ac-His-DPhe-Arg-Trp-NH2 (mMC1R; compared with KNS2-153): ≥ 10 fold
Compound: CC(=O)N[C@@H](Cc1c[nH]cn1)C(=O)N[C@@H](CCCNC(=N)N)C(=O)N[C@H](Cc1ccc(C)cc1)C(=O)N1Cc2ccccc2C[C@H]1C(N)=O [KNS2-23-7, Ac-His-Arg-(pMe)DPhe-Tic-NH2] (Ac-HR[dPhe(4-Me)][Tic]-NH2)

Compound: CC(=O)N[C@@H](Cc1c[nH]cn1)C(=O)N[C@@H](CCCNC(=N)N)C(=O)N[C@H](Cc1ccc(C#N)cc1)C(=O)N1Cc2ccccc2C[C@H]1C(N)=O [KNS2-23-8, Ac-His-Arg-(pCN)DPhe-Tic-NH2] (Ac-HR[dPhe(4-CN)][Tic]-NH2)
EC50 (mMC5R): 500 ± 100 nM | mMC3R percent maximal stimulation relative to NDP-MSH (partial agonist) (mMC3R): 75 % NDP | EC50 (mMC3R): 4000 nM | Kb (mMC4R [2]): > 3160 nM | mMC4R antagonist activity (mMC4R [2]): did not result in antagonist activity | EC50 (mMC1R): 27 ± 6 nM

EC50 (mMC5R): 1000 ± 500 nM | mMC3R percent maximal stimulation relative to NDP-MSH (partial agonist) (mMC3R): 85 % NDP | EC50 (mMC3R): 4200 nM | Kb (mMC4R [2]; read-out: mMC4R pA2 (converted)): > 3160 nM | EC50 (mMC4R [1]): > 100000 nM | EC50 (mMC1R): 40 ± 10 nM
Compound: CC(=O)N[C@@H](Cc1c[nH]cn1)C(=O)N[C@@H](CCCNC(=N)N)C(=O)N[C@H](Cc1ccc(O)cc1)C(=O)N1Cc2ccccc2C[C@H]1C(N)=O [KNS2-23-9, Ac-His-Arg-DTyr-Tic-NH2] (Ac-HR[dY][Tic]-NH2)
mMC4R antagonist activity (mMC4R [2]): did not possess agonist or antagonist activity | mMC4R agonist activity (mMC4R [1]): did not possess agonist or antagonist activity

mMC5R agonist efficacy (mMC5R; full agonist = >90% of maximal NDP-MSH signal): not a full agonist | decreased agonist potency at the mMC5R compared to KNS2-22-4 (mMC5R; ratio of EC50 to KNS2-22-4): 5 fold | mMC5R percent maximal stimulation relative to NDP-MSH (partial agonist) (mMC5R; [7]): 65 % NDP | EC50 (mMC5R): 200 nM | decreased agonist potency at the mMC3R compared to KNS2-22-4 (mMC3R): 70 fold | mMC3R percent maximal stimulation relative to NDP-MSH (partial agonist) (mMC3R): 85 % NDP | EC50 (mMC3R): 900 nM | EC50 (mMC4R [1]): 3000 ± 2000 nM | EC50 (mMC1R): 4.6 ± 0.4 nM | decreased agonist potency at the mMC1R compared to KNS2-22-4 (mMC1R; ratio of EC50 to KNS2-22-4): 6 fold
Compound: CC(=O)N[C@@H](Cc1c[nH]cn1)C(=O)N[C@@H](CCCNC(=N)N)C(=O)N[C@H](Cc1ccccc1)C(=O)N1Cc2ccccc2C[C@H]1C(N)=O [KNS3-10, Ac-His-Arg-DPhe-Tic-NH2] (Ac-HR[dF][Tic]-NH2)
mMC4R agonist activity (mMC4R [1]): full agonist efficacy; also recorded: Full agonism

Compound: Ac-His-(pI)DPhe-Arg-Trp-NH2
MC3R activity (MC3R): partial agonist with antagonist activity | MC4R agonist activity (MC4R; previous studies): full agonist

Compound: Ac-Val-Gln-(pI)DPhe-DTic-NH2
MC4R efficacy relative to NDP-MSH (MC4R; partial stimulation, % efficacy of NDP-MSH): less than 50%

agonist EC50, cAMP AlphaScreen assay in HEK293 cells stably expressing mMC1R [3]: 0.009 nM | agonist EC50, β-galactosidase cAMP reporter assay in HEK293 cells stably expressing mMC5R [4]: 3.4 nM | agonist EC50, β-galactosidase cAMP reporter assay in HEK293 cells stably expressing mMC4R [5]: 0.32 nM | agonist EC50, β-galactosidase cAMP reporter assay in HEK293 cells stably expressing mMC3R [6]: 0.52 nM
Compound: NDP-MSH (peptide)
